US11286228B2, “Stilbene derivative and method for preparing same” (Ozchela Inc., priority 2016, dated 2022)
Read-outs that look alike come from different tables or passages of the source.

What was measured:
[1] = target: cyclophilin; assay: Cis-trans isomerase inhibitory activity (chymotrypsin-coupled Suc-AAPF-pNA cleavage, absorbance 390 nm); format: biochemical; settings: cyclophilin, chymotrypsin, Suc-AAPF-pNA; read-out: Test Example 1: cis-trans isomerase inhibitory activity (IC50)
Text: Chymotrypsin cleaves a trans-type alanine-proline peptide bond. When Suc-AAPF-pNA (a peptide substrate) and chymotrypsin are mixed, the trans-type peptide substrate is cleaved and the cis-type peptide substrate remains. The remaining cis-type peptide substrate is converted into a trans form by a cis-trans isomerase and is then cleaved again by chymotrypsin. When the cis-trans isomerase is present, chymotrypsin is able to cleave a larger amount of trans-type peptide substrate within a predetermined period of time, from which the activity of the cis-trans isomerase may be determined. The amount of the cleaved trans-type peptide substrate is measured using absorbance at 390 nm. Cyclophilin has cis-trans isomerase activity, and accelerates the cleavage of trans-type peptide substrate by chymotrypsin. When the stilbene derivatives of the present invention were treated together with cyclophilin, the cleavage of the peptide substrate by chymotrypsin was not observed to accelerate. Thereby, the stilbene derivatives of the invention can be concluded to inhibit the activity of cyclophilin.

[2] = tested on: hepatitis C virus; assay: Antiviral activity in HCV replicon cells (Renilla luciferase); format: cell-based; settings: read-out: Test Example 3: antiviral activity (EC50)
Procedure: The antiviral activity of the stilbene derivatives on hepatitis C virus was measured. The replicon cells that stably replicate the hepatitis C virus genome were attached to a culture plate and cultured in a CO2 incubator at 37° C. for 24 hr. The replicon cells cultured for one day were washed with a PBS solution, treated with the compounds of the present invention, and then cultured for 72 hr. The stilbene derivative-treated replicon cells were washed with a cold PBS solution and added with 20 μL of a cell lysis solution so that the cells were lysed in ice for 20 min. 100 μL of a Renilla luciferase substrate was added thereto, after which the luminescence thereof was measured and thus the amount of the hepatitis C virus genome was estimated. The amount of the hepatitis C virus genome in the stilbene derivative-treated replicon cells according to the present invention relative to the amount of the hepatitis C virus genome in dimethylsulfoxide (DMSO)-treated replicon cells is shown.
Compounds 1 to 155 of Tables 1 to 10 may be grouped as follows based on the antiviral activity (EC50) values: […]

[3] = tested on: mitochondria obtained from hepatocytes; assay: Inhibitory activity on calcium-induced mitochondrial swelling (absorbance 520 nm); settings: read-out: Test Example 4: inhibiting mitochondrial swelling (IC50)
Text: Cyclophilin is a key protein for forming permeability transition pores (PTP) in mitochondria. When permeability transition pores are formed, mitochondria swell, whereby the outer membrane thereof ruptures and thus cell death progresses. Such mitochondrial dysfunction causes many diseases including neurodegenerative diseases, cancer, and the like. Cyclosporine, a known cyclophilin inhibitor, is capable of preventing the formation of permeability transition pores to thus suppress mitochondrial swelling.
The mitochondrial swelling test was performed as follows. Specifically, the hepatocytes were disrupted using a Dounce tissue grinder. The disrupted cells were centrifuged at 700×g for 10 min and the supernatant was transferred into a new tube. The supernatant was centrifuged at 12,000×g for 15 min, thereby obtaining mitochondria.
When the extracted mitochondria were added with calcium, they swelled, which may be observed by measuring the absorbance at 520 nm. The stilbene derivatives are effective at inhibiting mitochondrial swelling due to calcium.
The activity of Compounds 1 to 155 of Tables 1 to 10 on inhibiting mitochondrial swelling may be determined based on IC50 values, and may be grouped as follows: […]

[4] = Hepatitis C virus, HCV replicon cells, 72 hr, Renilla luciferase, relative to DMSO
[5] = Hepatocyte, calcium-induced swelling of extracted mitochondria
[6] = HCV replicon cells, 72 hr, Renilla luciferase, relative to DMSO
[7] = calcium-induced swelling of extracted mitochondria

Compound | IC50 [1] [µM] | EC50 [2, 4] [µM] | IC50 [3, 5] [µM] | EC50 [2, 6] [µM] | IC50 [3, 7] [µM] | EC50 ([2]; Hepatitis C virus, 72 h) [µM] | IC50 ([3]; Hepatocyte) [µM]
Cc1ccc(C(C#N)=Cc2ccccc2N(C)C)cc1 [Compound 1] | 0.2 to 2 | 5 to 50 | 50 to 500 | – | – | – | –
CCc1ccc(C(C#N)=Cc2ccccc2C(=O)O)cc1 [Compound 2] | 0.2 to 2 | – | – | 5 to 50 | 50 to 500 | – | –
CCc1ccc(C(C#N)=Cc2ccccc2N(C)C)cc1 [Compound 3] | 0.2 to 2 | – | – | 5 to 50 | 50 to 500 | – | –
CC(C)c1ccc(C(C#N)=Cc2ccccc2Cl)cc1 [Compound 4] | 0.2 to 2 | 5 to 50 | 50 to 500 | – | – | – | –
CC(C)c1ccc(C(C#N)=Cc2ccccc2C(=O)O)cc1 [Compound 5] | 0.2 to 2 | 5 to 50 | 50 to 500 | – | – | – | –
COc1ccccc1C=C(C#N)c1ccc(C(C)C)cc1 [Compound 6] | 0.2 to 2 | 5 to 50 | 50 to 500 | – | – | – | –
CN(C)c1ccccc1C=C(C#N)c1ccc([N+](=O)[O-])cc1 [Compound 7] | 0.2 to 2 | 5 to 50 | 50 to 500 | – | – | – | –
CCCCc1ccc(C(C#N)=Cc2ccccc2C(=O)O)cc1 [Compound 8] | 0.02 to 0.2 | – | – | 0.5 to 5 | 5 to 50 | – | –
CCC(C)c1ccc(C(C#N)=Cc2ccccc2C(=O)O)cc1 (stereo not drawn) [Compound 9] | 0.02 to 0.2 | – | – | 0.5 to 5 | 5 to 50 | – | –
CC(C)(C)c1ccc(C(C#N)=Cc2ccccc2C(=O)O)cc1 [Compound 10] | 0.02 to 0.2 | 0.5 to 5 | 5 to 50 | – | – | – | –
COc1ccccc1C=C(C#N)c1ccc(C(C)(C)C)cc1 [Compound 11] | 0.2 to 2 | 5 to 50 | 50 to 500 | – | – | – | –
COc1ccccc1C=C(C#N)c1ccc(C)c(C)c1 [Compound 12] | 0.2 to 2 | 5 to 50 | 50 to 500 | – | – | – | –
Cc1ccc(C(C#N)=Cc2ccccc2C(=O)O)cc1C [Compound 13] | 0.2 to 2 | – | – | 5 to 50 | 50 to 500 | – | –
COc1ccccc1C=C(C#N)c1ccc(C(=O)C(C)(C)C)cc1 [Compound 14] | 0.02 to 0.2 | 0.5 to 5 | 5 to 50 | – | – | – | –
CC(C)(C)C(=O)c1ccc(C(C#N)=Cc2ccccc2C(=O)O)cc1 [Compound 15] | 0.2 to 2 | – | – | 5 to 50 | 50 to 500 | – | –
CCOc1ccc(C(C#N)=Cc2ccccc2OC)cc1 [Compound 16] | 0.2 to 2 | 5 to 50 | 50 to 500 | – | – | – | –
CCOc1ccc(C(C#N)=Cc2ccccc2C(=O)O)cc1 [Compound 17] | 0.2 to 2 | – | – | 5 to 50 | 50 to 500 | – | –
CCCCOc1ccc(C(C#N)=Cc2ccccc2OC)cc1 [Compound 18] | 0.02 to 0.2 | 0.5 to 5 | 5 to 50 | – | – | – | –
CCCCOc1ccc(C(C#N)=Cc2ccccc2C(=O)O)cc1 [Compound 19] | 0.02 to 0.2 | – | – | 0.5 to 5 | 5 to 50 | – | –
COc1ccccc1C=C(C#N)c1ccc(Cc2ccccc2)cc1 [Compound 20] | ≤ 0.02 | < 0.5 | < 5 | – | – | – | –
N#CC(=Cc1ccccc1C(=O)O)c1ccc(Cc2ccccc2)cc1 [Compound 21] | ≤ 0.02 | – | – | < 0.5 | < 5 | – | –
CCc1ccccc1C=C(C#N)c1ccc([N+](=O)[O-])cc1 [Compound 22] | 0.2 to 2 | 5 to 50 | 50 to 500 | – | – | – | –
CC(C)c1ccccc1C=C(C#N)c1ccc([N+](=O)[O-])cc1 [Compound 23] | 0.2 to 2 | 5 to 50 | 50 to 500 | – | – | – | –
N#CC(=Cc1ccccc1N)c1ccc([N+](=O)[O-])cc1 [Compound 24] | 0.2 to 2 | 5 to 50 | 50 to 500 | – | – | – | –
CN1CCN(c2ccccc2C=C(C#N)c2ccc([N+](=O)[O-])cc2)CC1 [Compound 25] | 0.2 to 2 | 5 to 50 | 50 to 500 | – | – | – | –

Compound | IC50 [1] [µM] | EC50 [2, 4] [µM] | IC50 [3, 5] [µM] | EC50 [2, 6] [µM] | IC50 [3, 7] [µM] | EC50 ([2]; Hepatitis C virus, 72 h) [µM] | IC50 ([3]; Hepatocyte) [µM]
CCC(C)Oc1ccccc1C=C(C#N)c1ccc([N+](=O)[O-])cc1 (stereo not drawn) [Compound 26] | 0.2 to 2 | 5 to 50 | 50 to 500 | – | – | – | –
N#CC(=Cc1ccccc1OCC1CC1)c1ccc([N+](=O)[O-])cc1 [Compound 27] | 0.02 to 0.2 | – | – | 0.5 to 5 | 5 to 50 | – | –
CN(C)CCOc1ccccc1C=C(C#N)c1ccc([N+](=O)[O-])cc1 [Compound 28] | 0.2 to 2 | 5 to 50 | 50 to 500 | – | – | – | –
N#CC(=Cc1ccccc1N1CCCCC1)c1ccc([N+](=O)[O-])cc1 [Compound 29] | 0.2 to 2 | 5 to 50 | 50 to 500 | – | – | – | –
N#CC(=Cc1ccccc1N1CCOCC1)c1ccc([N+](=O)[O-])cc1 [Compound 30] | 0.2 to 2 | 5 to 50 | 50 to 500 | – | – | – | –
N#CC(=Cc1ccccc1C1CCCCC1)c1ccc([N+](=O)[O-])cc1 [Compound 31] | 0.02 to 0.2 | – | – | – | – | 0.5 to 5 | 5 to 50
CC(C)CCOc1cccc(C=C(C#N)c2ccc([N+](=O)[O-])cc2)c1 [Compound 32] | 0.2 to 2 | 5 to 50 | 50 to 500 | – | – | – | –
CN(C)CCCOc1cccc(C=C(C#N)c2ccc([N+](=O)[O-])cc2)c1 [Compound 33] | 0.2 to 2 | 5 to 50 | 50 to 500 | – | – | – | –
CC(C)Cc1ccccc1C=C(C#N)c1ccc([N+](=O)[O-])cc1 [Compound 34] | 0.2 to 2 | 5 to 50 | 50 to 500 | – | – | – | –
CC(C)(C)Cc1ccccc1C=C(C#N)c1ccc([N+](=O)[O-])cc1 [Compound 35] | 0.02 to 0.2 | 0.5 to 5 | 5 to 50 | – | – | – | –
CC(C)CCc1ccccc1C=C(C#N)c1ccc([N+](=O)[O-])cc1 [Compound 36] | 0.02 to 0.2 | 0.5 to 5 | 5 to 50 | – | – | – | –
N#CC(=Cc1ccccc1Cc1c(Cl)cccc1Cl)c1ccc([N+](=O)[O-])cc1 [Compound 37] | 0.02 to 0.2 | 0.5 to 5 | 5 to 50 | – | – | – | –
N#CC(=Cc1ccccc1CCc1ccccc1)c1ccc([N+](=O)[O-])cc1 [Compound 38] | 0.02 to 0.2 | 0.5 to 5 | 5 to 50 | – | – | – | –
N#CC(=Cc1ccccc1CCC1CCCCC1)c1ccc([N+](=O)[O-])cc1 [Compound 39] | ≤ 0.02 | < 0.5 | < 5 | – | – | – | –
N#CC(=Cc1ccccc1CCCC1CCCCC1)c1ccc([N+](=O)[O-])cc1 [Compound 40] | ≤ 0.02 | < 0.5 | < 5 | – | – | – | –
N#CC(=Cc1ccccc1CC1CCCCC1)c1ccc([N+](=O)[O-])cc1 [Compound 41] | ≤ 0.02 | < 0.5 | < 5 | – | – | – | –
N#CC(=Cc1ccccc1CCCc1ccccc1)c1ccc([N+](=O)[O-])cc1 [Compound 42] | 0.2 to 2 | 5 to 50 | 50 to 500 | – | – | – | –
CC(C)(C)CCc1ccccc1C=C(C#N)c1ccc([N+](=O)[O-])cc1 [Compound 43] | 0.02 to 0.2 | 0.5 to 5 | 5 to 50 | – | – | – | –
CC(C)(C)c1ccc(CCc2ccccc2C=C(C#N)c2ccc([N+](=O)[O-])cc2)cc1 [Compound 45] | 0.02 to 0.2 | 0.5 to 5 | 5 to 50 | – | – | – | –
N#CC(=Cc1ccccc1CCc1ccccc1Cl)c1ccc([N+](=O)[O-])cc1 [Compound 46] | 0.02 to 0.2 | 0.5 to 5 | 5 to 50 | – | – | – | –
N#CC(=Cc1ccccc1CCc1cccc(Cl)c1)c1ccc([N+](=O)[O-])cc1 [Compound 47] | 0.02 to 0.2 | 0.5 to 5 | 5 to 50 | – | – | – | –
N#CC(=Cc1ccccc1CCc1ccc(Cl)cc1)c1ccc([N+](=O)[O-])cc1 [Compound 48] | 0.02 to 0.2 | – | 5 to 50 | – | – | 0.5 to 5 | –
COc1ccccc1CCc1ccccc1C=C(C#N)c1ccc([N+](=O)[O-])cc1 [Compound 49] | 0.2 to 2 | 5 to 50 | 50 to 500 | – | – | – | –
Cc1ccc(CCc2ccccc2C=C(C#N)c2ccc([N+](=O)[O-])cc2)cc1 [Compound 52] | 0.02 to 0.2 | 0.5 to 5 | 5 to 50 | – | – | – | –
